Laboratory results: patent US20130165368A1, “ANTIMICROBIAL COMPOUNDS” (priority 2010, published 2013)
Converted amounts (≈) assume the structure as drawn. Like-named read-outs stand apart in the source and are kept apart here.

Key:
Format in all cases: cell-based
Candida glabrata = assay: MIC agar dilution, micro-organism 20 (3943); details: Nakaseomyces glabratus, Candida glabrata 3943, read-out: MIC
Protocol: (§1) Throughout the period of testing the microbial strains were subcultured and incubated for 18-20 hours at 37° C. on a weekly basis. Horse blood agar plates were used to sustain the micro-organisms both prior to and throughout testing. The alkoxylated alkanols listed in Table II below were obtained (these are obtainable from Sigma-Aldrich Company Ltd, Dorset, England), each having a GC purity of at least 97%.
(§2) Molar equivalent concentrations were used to allow comparison between compounds of differing molecular mass. Due to weighing difficulties, any compound in solid form was melted in a water bath prior to dilution. To make ten-times strength concentrations, which takes into account agar dilution, 0.0352 mmol of each compound was weighed into plastic universal bottles and 4 mL of sterile distilled water (SDW) was added. To produce a homogenous emulsion the universals were vortexed; once achieved the emulsions were serial diluted by adding 2 mL to 2 mL of SDW.
(§3) Myristyl alcohol and lauryl alcohol were re-weighed and dissolved in 25 μL of the polar solvent 1-methyl-2-pyrrolidone (M6762; Sigma-Aldrich) in sterile glass universals due to an inability to achieve an even suspension. To maintain an even emulsion in the presence of SDW 37.5 μL of the non-ionic detergent Tween 20 (P1379, Sigma-Aldrich) was also added. 3.9375 mL of SDW was added to these, to create a 4 mL volume; they were vortexed and diluted as before.
(§4) For every 100 mL of Isosensitest agar (IST) (CM0471; Oxoid, Basingstoke, England), 3.1 g of the IST powder was added to 100 mL SDW (as per manufacturer's instructions) and sterilised for 15 minutes at 121° C. Once sterilised, the molten agar was cooled to 50° C. in a water-bath. Subsequently 4.8 g of CCEY powder (BC2160; Bioconnections, Wetherby, England), also known as Brazier's medium, was added to 100 mL SDW for every 100 mL of agar needed. This was then sterilised for 15 minutes at 121° C. Once sterilised the molten agar was cooled to 50° C. in a water-bath and 4 mL of egg-yolk emulsion (S2073; TCS Biosciences Ltd, Buckingham, United Kingdom) and 1 mL of lysed defibrinated horse blood (HB035; TCS Biosciences Ltd, Buckingham, United Kingdom) were also added for every 100 mL needed. Horse blood lysis is achieved by dilution to half concentration with SDW; when fully lysed the mixture will turn dark red in colour.
(§5) 18 mL agar was added to each universal and then poured into sterile Petri dishes. This step creates a 1/10 dilution resulting in agar plates of the required strength. Control plates for each set of strains were created by adding 18 mL of agar to 2 mL of SDW.
(§6) Suspensions of each bacterial species were prepared with a density equal to that of a 0.5 McFarland standard using a densitometer. All suspensions were made using sterile distilled water and fresh 18-20 hour cultures. As a 0.5 McFarland standard contains 1.5×10^8 CFU/mL and the multipoint inoculators applies 1 μL spots of liquid, each bacterial suspension was diluted 1/15 (20 μL suspension to 280 μL sterile distilled water).
(§7) Bacterial suspensions were prepared from fresh 18-24 hour cultures as previously described. 1 μL of each strain was inoculated onto all 100 agar plates containing a different chemical concentration and the 2 control plates. This was done using a multipoint inoculator which inoculates 20 strains per plate. All plates were incubated for 22 hours at 37° C. in aerobic conditions.
(§8) Each plate was examined for bacterial growth after 22 and 48 hours, with each being incubated in between examinations. A positive result was recorded as growth of ≧10 colonies. A negative result was recorded as growth of <10 colonies as this is equivalent to 99.9% inhibition. The lowest concentration of chemical that inhibited growth was recorded as the MIC. The results are recorded in Table IV below, where the numbers are quoted in mmol/L. […]

Providencia rettgeri = assay: MIC agar dilution, micro-organism 3 (7475); details: Providencia rettgeri 7475, read-out: MIC
Protocol: as §1, §2, §3, §4, §5, §6, §7, §8

Candida albicans = assay: MIC agar dilution, micro-organism 19 (90028); details: Candida albicans 90028, read-out: MIC
Protocol: as §1, §2, §3, §4, §5, §6, §7, §8

[1] = test system: Staphylococcus epidermidis; assay: MIC agar dilution, micro-organism 14 (11047); details: Staphylococcus epidermidis 11047, read-out: MIC
Protocol: as §1, §2, §3, §4, §5, §6, §7, §8

Escherichia coli = assay: MIC agar dilution, micro-organism 1 (10418); details: Escherichia coli 10418, read-out: MIC
Protocol: as §1, §2, §3, §4, §5, §6, §7, §8

[2] = test system: Staphylococcus aureus (MRSA); assay: MIC agar dilution, micro-organism 12 (11939); details: Staphylococcus aureus, MRSA, Staphylococcus aureus (MRSA) 11939, read-out: MIC
Protocol: as §1, §2, §3, §4, §5, §6, §7, §8

Staphylococcus aureus = assay: MIC agar dilution, micro-organism 13 (6571); details: Staphylococcus aureus, Staphylococcus aureus 6571, read-out: MIC
Protocol: as §1, §2, §3, §4, §5, §6, §7, §8

Steptococcus pyogenes = assay: MIC agar dilution, micro-organism 11 (8306); details: Steptococcus pyogenes 8306, read-out: MIC
Protocol: as §1, §2, §3, §4, §5, §6, §7, §8

Enterococcus faecium = assay: MIC agar dilution, micro-organism 16 (7171); details: Enterococcus faecium 7171, read-out: MIC
Protocol: as §1, §2, §3, §4, §5, §6, §7, §8

Bacillus subtilis = assay: MIC agar dilution, micro-organism 18 (9372); details: Bacillus subtilis 9372, read-out: MIC
Protocol: as §1, §2, §3, §4, §5, §6, §7, §8

Listeria monocytogenes = assay: MIC agar dilution, micro-organism 15 (11994); details: Listeria monocytogenes 11994, read-out: MIC
Protocol: as §1, §2, §3, §4, §5, §6, §7, §8

Enterococcus faecalis = assay: MIC agar dilution, micro-organism 17 (775); details: Enterococcus faecalis 775, read-out: MIC
Protocol: as §1, §2, §3, §4, §5, §6, §7, §8

Row | MIC (Candida glabrata; 22 h, 22 hrs) [µM] | MIC (Candida glabrata; 48 h, 48 hrs) [µM] | MIC (Providencia rettgeri; 22 hrs) [µM] | MIC (Providencia rettgeri; 48 hrs) [µM] | MIC (Candida albicans; 22 hrs) [µM] | MIC (Candida albicans; 48 hrs) [µM] | MIC ([1]; 22 hrs) [µM] | MIC ([1]; 48 hrs) [µM] | MIC (Escherichia coli; 22 hrs) [µM] | MIC (Escherichia coli; 48 hrs) [µM] | MIC ([2]; 22 h, 22 hrs) [µM] | MIC ([2]; 48 h, 48 hrs) [µM] | MIC (Staphylococcus aureus; 22 h, 22 hrs) [µM] | MIC (Staphylococcus aureus; 48 h, 48 hrs) [µM] | MIC (Steptococcus pyogenes; 22 h, 22 hrs) [µM] | MIC (Steptococcus pyogenes; 48 h, 48 hrs) [µM] | MIC (Enterococcus faecium; 22 hrs) [µM] | MIC (Enterococcus faecium; 48 hrs) [µM] | MIC (Bacillus subtilis; 22 hrs) [µM] | MIC (Bacillus subtilis; 48 hrs) [µM] | SMILES | other results
1 | > 880 | > 880 | > 880 | > 880 | > 880 | > 880 | 110 (≈ 23.6 µg/mL) | 220 (≈ 47.2 µg/mL) | > 880 | > 880 | 110 (≈ 23.6 µg/mL) | 110 (≈ 23.6 µg/mL) | 440 (≈ 94.3 µg/mL) | 440 (≈ 94.3 µg/mL) | 220 (≈ 47.2 µg/mL) | 220 (≈ 47.2 µg/mL) | > 880 | 220 (≈ 47.2 µg/mL) | > 880 | > 880 | CCCCCCCCCCCCCCO [M0, 1-Tetradecanol, reference compound] | MIC (Listeria monocytogenes; 22 hrs): > 880 µM; MIC (Listeria monocytogenes; 48 hrs): > 880 µM; MIC (Enterococcus faecalis; 22 hrs): > 880 µM; MIC (Enterococcus faecalis; 48 hrs): 110 µM (≈ 23.6 µg/mL)
2 | > 880 | > 880 | > 880 | > 880 | > 880 | > 880 | 220 (≈ 125 µg/mL) | 220 (≈ 125 µg/mL) | > 880 | > 880 | 440 (≈ 249 µg/mL) | 440 (≈ 249 µg/mL) | 110 (≈ 62.3 µg/mL) | 110 (≈ 62.3 µg/mL) | 550 (≈ 312 µg/mL) | 55 (≈ 31.2 µg/mL) | > 880 | > 880 | 110 (≈ 62.3 µg/mL) | 110 (≈ 62.3 µg/mL) | CCCCCCCCCCCCCCOCCOCCOCCOCCOCCOCCOCCOCCO [M8, Octaethylene Glycol Monotetradecyl Ether] | MIC (Listeria monocytogenes; 22 hrs): > 880 µM; MIC (Listeria monocytogenes; 48 hrs): > 880 µM; MIC (Enterococcus faecalis; 22 hrs): 55 µM (≈ 31.2 µg/mL); MIC (Enterococcus faecalis; 48 hrs): 55 µM (≈ 31.2 µg/mL)
3 | 880 (≈ 238 µg/mL) | 880 (≈ 238 µg/mL) | > 880 | > 880 | > 880 | > 880 | > 880 | > 880 | > 880 | > 880 | > 880 | > 880 | > 880 | > 880 | 880 (≈ 238 µg/mL) | 880 (≈ 238 µg/mL) | > 880 | > 880 | > 880 | > 880 | CCCCCCCCCCCCCCCCCCO [S0, 1-Octadecanol, reference compound] | MIC (Listeria monocytogenes; 22 hrs): > 880 µM; MIC (Listeria monocytogenes; 48 hrs): > 880 µM; MIC (Enterococcus faecalis; 22 hrs): > 880 µM; MIC (Enterococcus faecalis; 48 hrs): > 880 µM
